“And” between values parts separate entries of the source, which are not always exact repeats. Identical values can stand only once.
How the values were obtained:
human whole blood = assay: P50 of human whole blood after incubation with compound; format: cell-based; conditions: for P50 (Torr) compound + whole blood / P50 increase (%) + SD: human whole blood
Experimental: (§1) For the in vitro experiments, ITPP was dissolved in deionized water, pH was adjusted at pH 7 and, for incubation with whole blood, the osmolarity of the ITPP solutions was adjusted with glucose to 270-297 mOsM. Mixtures of hemoglobin and ITPP were measured with a HEMOX analyzer (PD Marketing, London) immediately after mixing. Red blood cells were incubated with ITPP for 1 hour at 37° C. Following incubation, the cells were washed 3 times with Bis-Tris-buffer (pH=7.0) and then used for P50 measurement.
(§2) ITPP-Ca4Na acts as a powerful effector of hemoglobin shifting the oxygen fixation curves to the right, with respect to the natural effector bisphosphoglycerate. […] In FIG. 6, hemoglobin is incubated (at concentrations up to 100 mM final) with ITPP Ca4Na, for 1 hour at 37° C. and measured by TCS-hemox analyzer for p50 shifts. In FIG. 7, whole human blood was incubated (at concentrations up to 120 mM final) with ITPP Ca4Na, for 1 hour 37° C. and measured by TCS-hemox analyzer for p50 shifts.

hemoglobin [1] = biological target: T1, hemoglobin (Homo sapiens, UniProt P68871+P69905); assay: p50 shift of hemoglobin incubated with ITPP Ca4Na (TCS-hemox analyzer); format: biochemical; conditions: up to 100 mM final, 1 hour at 37° C.
Experimental: as §2

human free Hb = human free Hb (Homo sapiens, UniProt P68871+P69905); assay: P50 of human free Hb after incubation with compound (HEMOX analyzer); format: biochemical; conditions: compound solution 60 mM
Experimental: as §1

murine free Hb = murine free Hb (Mus musculus, UniProt P01942+P02088); assay: P50 of murine free Hb after incubation with compound (HEMOX analyzer); format: biochemical; conditions: for P50 (Torr) Hb + compound / P50 increase (%) + SD: murine free Hb, compound solution 60 mM
Experimental: as §1

murine whole blood = assay: P50 of murine whole blood after incubation with compound; format: cell-based
Experimental: as §1

[2] = test system: hypoxic endothelial cells; assay: ITPP-Ca/Na loaded red blood cells on hypoxic endothelial cells in vitro; format: cell-based
[3] = test system: VEGF mRNA in Lewis Lung carcinoma (LLC) tumors; assay: VEGF mRNA (RT-PCR) in Lewis Lung carcinoma tumors of ITPP drinking mice; format: in vivo, C57BL/6 mice; conditions: LLC tumor-bearing mice, ITPP 20 g/L orally, day 9, versus controls
Experimental: ITPP, when administered orally, intravenously, or intraperitoneally, inhibits angiogenesis in growing tumors by enhancing the PO2 in the forming tumors. […] Thereafter, all animals received 1×10^6 Lewis Lung carcinoma (LLC) cells, injected in the dorsal cavity. At different time points, the VEGF mRNA were assayed by RT-PCR in the tumors growing in both groups of mice.
There was a difference in the level of mRNA of the VEGF gene in both groups. […] The RT-PCR agarose gel assay of VEGF mRNAs from tumor tissue taken from 2 mice each on day 15 after inoculation of LLC cells (track 1: controls, track 2: ITPP treated animals) and day 30 after inoculation (track 3: control animals, track 4: ITPP treated animals).
Quantification of the gel assays indicated a reduction by a factor of 10,000 of the amount of VEGF mRNAs detected in the tumors of animals having received ITPP, at day 9 and then, while differences remain between treated and untreated animals, they tend to decrease.

circulating RBCs = assay: P50 of circulating RBCs after oral ITPP in drinking water; format: in vivo; conditions: drinking water 20 g/L (0.27 mM, pH ~7.0) ad libitum
Experimental: ITPP was dissolved in drinking water at a 20 g/L-concentration (0.27 mM, pH ˜7.0.) and offered for drinking ad libitum.

porcine free Hb = porcine free Hb (Sus scrofa, UniProt P01965+P02067); assay: P50 of porcine free Hb after incubation with compound (HEMOX analyzer); format: biochemical; conditions: compound solution 60 mM
Experimental: as §1

porcine whole blood = assay: P50 of porcine whole blood after incubation with compound; format: cell-based; conditions: compound 60 mM
Experimental: as §1

hemoglobin [4] = biological target: T1, hemoglobin; conditions: higher than DPG; cited from earlier work

Sequence of murine free Hb (P01942 2-142 limits assumed): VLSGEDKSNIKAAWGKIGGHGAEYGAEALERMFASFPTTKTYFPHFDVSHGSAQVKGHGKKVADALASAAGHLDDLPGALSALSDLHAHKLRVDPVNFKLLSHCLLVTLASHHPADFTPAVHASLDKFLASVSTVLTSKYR
Sequence of murine free Hb (P02088 2-147 limits assumed): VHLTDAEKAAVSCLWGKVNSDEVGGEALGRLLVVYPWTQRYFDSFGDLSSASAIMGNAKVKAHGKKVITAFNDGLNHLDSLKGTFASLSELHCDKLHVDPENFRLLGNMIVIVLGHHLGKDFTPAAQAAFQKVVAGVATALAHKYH
Sequence of human free Hb (P69905 2-142 limits assumed): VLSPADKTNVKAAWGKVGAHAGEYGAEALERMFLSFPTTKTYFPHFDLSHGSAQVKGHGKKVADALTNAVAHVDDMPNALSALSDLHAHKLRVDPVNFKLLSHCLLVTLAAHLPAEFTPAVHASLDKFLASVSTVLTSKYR
Sequence of human free Hb (P68871 2-147 limits assumed): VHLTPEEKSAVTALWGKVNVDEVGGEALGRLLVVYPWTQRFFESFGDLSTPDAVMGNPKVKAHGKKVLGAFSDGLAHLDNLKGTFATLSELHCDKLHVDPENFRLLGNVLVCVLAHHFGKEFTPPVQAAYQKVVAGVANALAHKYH
T1 sequence (P69905 2-142 limits assumed): as the sequence (P69905 2-142 limits assumed) above
T1 sequence (P68871 2-147 limits assumed): as the sequence (P68871 2-147 limits assumed) above
Sequence of porcine free Hb (P01965 whole entry): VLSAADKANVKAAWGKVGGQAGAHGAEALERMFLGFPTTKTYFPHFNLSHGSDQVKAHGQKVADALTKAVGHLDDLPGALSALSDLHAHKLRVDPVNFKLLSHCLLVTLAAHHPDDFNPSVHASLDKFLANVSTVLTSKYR
Sequence of porcine free Hb (P02067 2-147 limits assumed): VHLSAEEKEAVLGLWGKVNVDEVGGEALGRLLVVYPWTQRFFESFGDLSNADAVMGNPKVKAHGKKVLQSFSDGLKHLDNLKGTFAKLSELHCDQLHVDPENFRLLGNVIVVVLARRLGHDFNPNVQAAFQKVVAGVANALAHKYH

| Molecule | P50 (Torr) Hb + compound (murine free Hb) [Torr] | P50 increase (%) + SD (murine free Hb) [%] | P50 (Torr) compound + whole blood (murine whole blood; compound 30 mM) [Torr] | P50 increase (%) + SD (murine whole blood; compound 30 mM) [%] | also measured |
| --- | --- | --- | --- | --- | --- |
| O=P1([O-])OC2C3OP(=O)([O-])OP(=O)([O-])OC3C3OP(=O)([O-])OP(=O)([O-])OC3C2OP(=O)([O-])O1.[Ca+2].[Na+].[Na+].[Na+].[Na+] (stereo not drawn) [ITPP-Ca4Na, monocalcium tetrasodium myo-inositol 1,6:2,3:4,5 trispyrophosphate] | – | – | – | – | p50 values of whole human blood (FIG. 7) (human whole blood; up to 120 mM final, 1 hour 37° C.): increase with concentration; p50 values of hemoglobin (FIG. 6) (hemoglobin [1]): increase with concentration |
| O=P1(O)OP(=O)(O)O[C@H]2[C@H](O1)[C@@H]1OP(=O)(O)OP(=O)(O)O[C@@H]1[C@H]1OP(=O)(O)OP(=O)(O)O[C@H]21.c1ccncc1.c1ccncc1.c1ccncc1.c1ccncc1.c1ccncc1.c1ccncc1 (racemic) [Compound 4, pyridinium salt of ITPP] | 50.0 | 100 ± 18 | 42.7 | 13 ± 2 | P50 (Torr) Hb + compound (human free Hb): 31.6 Torr; P50 increase (%) + SD (human free Hb): 107 ± 22%; P50 (Torr) compound + whole blood (human whole blood; compound 30 mM): 24.3 Torr; P50 increase (%) + SD (human whole blood; compound 30 mM): 10 ± 4% |
| O=P1([O-])OP(=O)([O-])O[C@H]2[C@H](O1)[C@@H]1OP(=O)([O-])OP(=O)([O-])O[C@@H]1[C@H]1OP(=O)([O-])OP(=O)([O-])O[C@H]21.[Ca+2].[Na+].[Na+].[Na+].[Na+] (racemic) [ITPP-Ca/Na, mixed calcium/sodium salt of inositol-tripyrophosphate] | – | – | – | – | effect on HIF-1 induction, VEGF and angiogenesis (FIG. 1) [2]: suppression of HIF-1 induction, VEGF and angiogenesis |
| CN(C)C1CCCCC1.CN(C)C1CCCCC1.CN(C)C1CCCCC1.CN(C)C1CCCCC1.CN(C)C1CCCCC1.CN(C)C1CCCCC1.O=P1(O)OP(=O)(O)O[C@H]2[C@H](O1)[C@@H]1OP(=O)(O)OP(=O)(O)O[C@@H]1[C@H]1OP(=O)(O)OP(=O)(O)O[C@H]21 (racemic) [Compound 7, N,N-dimethylcyclohexyl ammonium salt of ITPP] | 45.1 | 81 ± 15 | 52.0 | 30 ± 3 | – |
| NC1CCCCCCC1.NC1CCCCCCC1.NC1CCCCCCC1.NC1CCCCCCC1.NC1CCCCCCC1.NC1CCCCCCC1.O=P1(O)OP(=O)(O)O[C@H]2[C@H](O1)[C@@H]1OP(=O)(O)OP(=O)(O)O[C@@H]1[C@H]1OP(=O)(O)OP(=O)(O)O[C@H]21 (racemic) [Compound 12, cyclooctyl ammonium salt of ITPP] | 30.6 | 23 ± 5 | 41.3 | 9 ± 1 | – |
| NC1CCCCCC1.NC1CCCCCC1.NC1CCCCCC1.NC1CCCCCC1.NC1CCCCCC1.NC1CCCCCC1.O=P1(O)OP(=O)(O)O[C@H]2[C@H](O1)[C@@H]1OP(=O)(O)OP(=O)(O)O[C@@H]1[C@H]1OP(=O)(O)OP(=O)(O)O[C@H]21 (racemic) [Compound 11, cycloheptyl ammonium salt of ITPP] | 43.8 | 71 ± 3 | 45.5 | 20 ± 2 | – |
| C1CNCCN1.C1CNCCN1.C1CNCCN1.O=P1(O)OP(=O)(O)O[C@H]2[C@H](O1)[C@@H]1OP(=O)(O)OP(=O)(O)O[C@@H]1[C@H]1OP(=O)(O)OP(=O)(O)O[C@H]21 (racemic) [Compound 14, tripiperazinium salt of ITPP] | 82.9 | 254 ± 49 | 41.9 | 7 ± 1 | – |
| O=P1(O)OC2C3OP(=O)(O)OP(=O)(O)OC3C3OP(=O)(O)OP(=O)(O)OC3C2OP(=O)(O)O1 (stereo not drawn) [ITPP, inositol-tripyrophosphate] | – | – | – | – | P50 shift to higher PO2 (murine free Hb; murine hemoglobin, maximum observed): up to 250%; P50 shift to higher PO2 (murine whole blood; maximum observed): up to 40%; reduction factor of the amount of VEGF mRNAs detected in the tumors [3]: 10,000; shift of the P50 value of circulating RBCs (circulating RBCs): significant shift |
| O=P1([O-])OP(=O)([O-])O[C@H]2[C@H](O1)[C@@H]1OP(=O)([O-])OP(=O)([O-])O[C@@H]1[C@H]1OP(=O)([O-])OP(=O)([O-])O[C@H]21.[Ca+2].[Ca+2].[Ca+2] (racemic) [Compound 15, myo-inositol tripyrophosphate-calcium salt] | 61.9 | 130 ± 30 | 42.3 | 8 ± 2 | P50 (Torr) Hb + compound (human free Hb): 33.1 Torr; P50 increase (%) + SD (human free Hb): 170% and 170 ± 32%; P50 (Torr) compound + whole blood (human whole blood; compound 30 mM): 31.0 Torr; P50 increase (%) + SD (human whole blood; compound 30 mM): 25% and 25 ± 3%; P50 (Torr) compound + whole blood (murine whole blood; compound 60 mM): 55.3 Torr |
| O=P1([O-])OP(=O)([O-])O[C@H]2[C@H](O1)[C@@H]1OP(=O)([O-])OP(=O)([O-])O[C@@H]1[C@H]1OP(=O)([O-])OP(=O)([O-])O[C@H]21.[Na+].[Na+].[Na+].[Na+].[Na+].[Na+] (racemic) [Compound 5, myo-inositol tripyrophosphate-sodium salt] | 69.7 | 180 ± 25 | – | – | P50 (Torr) Hb + compound (human free Hb): 49.8 Torr; P50 increase (%) + SD (human free Hb): 225 ± 19%; P50 (Torr) Hb + compound (porcine free Hb): 68.1 Torr; P50 increase (%) + SD (porcine free Hb): 209 ± 39%; P50 (Torr) compound + whole blood (human whole blood; compound 60 mM): 30.8 Torr; P50 (Torr) compound + whole blood (murine whole blood; compound 4 mM): 47.4 Torr; P50 (Torr) compound + whole blood (porcine whole blood): 44.2 Torr |
| piperazinium salt of ITPP [Compound 13] | 67.7 | 189 ± 43 | 41.7 | 10 ± 2 | – |
| O=P(O)(O)O[C@H]1[C@H](OP(=O)(O)O)[C@@H](OP(=O)(O)O)[C@H](OP(=O)(O)O)[C@@H](OP(=O)(O)O)[C@H]1OP(=O)(O)O [IHP, inositol hexaphosphate] | – | – | – | – | affinity to hemoglobin relative to DPG (hemoglobin [4]): 1000 fold |

From patent US7745423B2, “Calcium/sodium salt of inositol tripyrophosphate as an allosteric effector of hemoglobin” (NormOxys, Inc, priority 2004, dated 2010)
